{
  "source": "patent US12312473B2",
  "about": "“Composition, film, near-infrared cut filter, pattern forming method, laminate, solid-state imaging element, infrared sensor, image display device, camera module, and compound” (FUJIFILM Corporation, priority 2019, dated 2025)",
  "data": [
    {"assay": "Solubility of coloring agent in PGMEA", "type": "physicochemical", "conditions": "propylene glycol methyl ether acetate (PGMEA), organic solvent or mixture, thermodynamic from solid, approx. 100 mg in 1 L propylene glycol methyl ether acetate at 25° C., stirred 30 minutes", "experimental": "In the present disclosure, the solubility of the coloring agent having a structure represented by Formula (1) (that is, the specific coloring agent) is measured and obtained by the following method.\nUnder atmospheric pressure, approximately 100 mg (precisely weighed value is X mg) of the coloring agent having a structure represented by Formula (1) is added to 1 L of propylene glycol methyl ether acetate at 25° C., and the mixture is stirred for 30 minutes, allowed to stand for 5 minutes, and filtered. Thereafter, the filtrate is dried under reduced pressure at 80° C. for 2 hours and precisely weighed (precisely weighed value is Y mg), and the solubility of the specific coloring agent dissolved in propylene glycol methyl ether acetate is calculated from the following expression. PGMEA solubility (mg/L) of specific coloring agent=X—Y\nUnder atmospheric pressure, approximately 100 mg of the dispersion liquid of the coloring agents shown in Tables 1 to 4 (value of the coloring agents shown Tables 1 to 4 precisely weighed is defined as X mg) was added to 1 L of propylene glycol methyl ether acetate at 25° C., and the mixture was stirred for 30 minutes. Next, the mixture was allowed to stand for 5 minutes and filtered, and the filtrate was dried under reduced pressure at 80° C. for 2 hours and weighed precisely (value of the filtrate precisely weighed is defined as Y mg). Solubility of the coloring agents shown in Tables 1 to 4 dissolved in propylene glycol methyl ether acetate was calculated from the following expression.", "units": {"solubility at 30 min": "µg/mL"}, "values": [
      {"smiles": "O=C1C(=O)/C(=C2/C=CC(=[N+]3CCC(C(=O)Oc4ccc(OC(=O)C5CC[N+](=C6C=C/C(=C7/C(=O)C(=O)C(c8ccc(N9CCC(C(=O)O)CC9)s8)=C7[O-])S6)CC5)cc4)CC3)S2)C([O-])=C1c1ccc(N2CCC(C(=O)O)CC2)s1", "note": "(centres unmarked) [A-cr-1]", "solubility at 30 min": "50 to 100"},
      {"smiles": "O=C1C(c2ccc3cccc4c3c2NB(c2ccc(-c3ccc(B5Nc6cccc7ccc(C8=C(O)/C(=c9/ccc%10cccc%11c%10c9=NB(c9ccccc9)N%11)C8=O)c(c67)N5)cc3)cc2)N4)=C(O)/C1=c1/ccc2cccc3c2c1=NB(c1ccccc1)N3", "note": "[A-sq-5]", "solubility at 30 min": "< 10"},
      {"smiles": "O=C1C(c2ccc3cccc4c3c2NC2(N4)c3ccccc3-c3ccccc32)=C(O)C1C1C=Cc2cccc3c2C1=NC1(N3)c2ccccc2-c2ccccc21", "note": "(centres unmarked) [compound 3, reference compound]", "solubility at 30 min": "< 10"},
      {"smiles": "CC(=O)Nc1cc2c(cc1C1=C([O-])/C(=c3/cc4c(cc3NC(=O)c3ccc(C(=O)Nc5cc6c(cc5C5=C([O-])/C(=c7/cc8c(cc7NC(C)=O)=[N+](C)C(C)C8(C)C)C5=O)C(C)(C)C(C)N6C)cc3)=[N+](C)C(C)C4(C)C)C1=O)C(C)(C)C(C)N2C", "note": "(centres unmarked) [A-sq-3]", "solubility at 30 min": "< 10"},
      {"smiles": "O=C1C(c2ccc3cccc4c3c2NC2(N4)c3ccccc3-c3ccc(OC(=O)c4ccc(C(=O)Oc5ccc6c(c5)C5(N=c7/c(=C8/C(=O)C(c9ccc%10cccc%11c%10c9NC9(N%11)c%10ccccc%10-c%10ccccc%109)=C8O)ccc8cccc(c78)N5)c5ccccc5-6)cc4)cc32)=C(O)/C1=c1/ccc2cccc3c2c1=NC1(N3)c2ccccc2-c2ccccc21", "note": "(centres unmarked) [A-sq-1]", "solubility at 30 min": "< 10"}
    ]}
  ]
}
